According to patent publication US20180103845A1, “METHOD FOR ASSESSING IRRITANCY TO BIOLOGICAL SAMPLES” (OLYMPUS CORPORATION, priority 2016, published 2018):

Test system: human skin models based on SkinEthic RHE
Test: Skin irritation test on three-dimensional human skin model (TG439 exposure, Nuclear-ID live/dead nuclear fluorescence, 3D confocal imaging)
Protocol: As such a biological sample 1, a three-dimensional human skin model approved in the OECD Testing Guidelines (TG) 439 (In Vitro Skin Irritation: Reconstructed Human Epidermis Test Method), such as SkinEthic RHE (manufactured by SkinEthic, France) having a thickness of about 100 μm, is favorably used. […] For irritancy assessment, dermal tissue may be contained in addition to the epidermis.
The chemical treatment step S1 is carried out in accordance with TG439. […]
Next, in the fluorescence labeling step S2, the nuclei of the cells in the biological tissues are fluorescence-labeled with a predetermined fluorescent marker. For fluorescence labeling, for example, a first fluorescent dye that specifically labels the nuclei of living cells, and a second fluorescent dye that emits fluorescence of a wavelength different from that of the first fluorescent dye and that specifically labels the nuclei of dead cells are used. […]
Next, in the image acquisition step S3, fluorescence images of the nuclei of living cells and the nuclei of dead cells at different depth positions in the biological sample are acquired using a fluorescence microscope.
FIGS. 5 and 6 show fluorescence images of biological samples exposed to 1% and 10% Triton-X, respectively. […] FIGS. 9 and 10 show fluorescence images of biological samples exposed to PBS and a 5% SDS solution, as controls. […]

In the case of Triton-X, the “three-dimensional structures of cells, such as the nuclei” value (human skin model exposed to 1% and 10% chemical (FIGS. 5 to 8), 42 min exposure, 42 h culture per TG439) is reported as “preserved”.

For `CCCCCCCCCCCCOS(=O)(=O)[O-].[Na+]` [SDS, sodium dodecyl sulphate], the “structures such as the nuclei of dead cells” value (human skin model exposed to 5% SDS solution, positive control (FIG. 10)) was “disrupted”.
